The values below come from US9353083B2, “Oxazetidine derivatives, process for preparing them and use in human medicine and in cosmetics” (GALDERMA RESEARCH & DEVELOPMENT, priority 2011, dated 2016).

Type in all cases: cell-based
For series [1], the target named is hERG potassium channel (Homo sapiens (Human), UniProt Q12809). As to the kind of experiment: hERG channel test: effect on amplitude of IKr in hERG transfected cells. Conditions: for effect on the amplitude of IKr encoded by hERG (change in percentage relative to the control): hERG transfected human cells; for effect observed on the amplitude of IKr (in words): 1, 3 and 10 μM; for lengthening the QT time (conclusion from hERG test): under the experimental conditions; for IC50: estimated from 1, 3 and 10 μM, read-out: Estimated IC50 for hERG channel blockade; for concentration from which the decrease of the amplitude of IKr starts: tested at 1, 3 and 10 μM; for decrease of the amplitude of IKr: with 10 μM. On the procedure: The object of the study was to track down the inhibition profile of seven selective compounds from human cell lines stably transfected with the gene for expressing the IKr protein of the hERG potassium channel. Several MC1R agonist compounds and especially the compounds of interest in the context of the invention were evaluated. The toxicity evaluation was performed using three increasing concentrations (1, 3 and 10 μM) of 2 hERG transfected cells (no reference compound used) of the following compounds: • Compound 1: N-[(R)-2-[3-(4-hydroxybutoxy)-3-o-tolylazetidin-1-yl]-1-(4-methoxybenzyl)-2-oxoethyl]-3-(1H-imidazol-4-yl)propionamide • Compound 2: (S)-N-[(R)-2-(3-butoxy-3-o-tolylazetidin-1-yl)-1-(4-methoxybenzyl)-2-oxoethyl]-2-hydroxy-3-(1H-imidazol-4-yl)propionamide • Compound 3: 3-(1H-imidazol-4-yl)-N-{(R)-1-(4-methoxybenzyl)-2-oxo-2-[3-o-tolyl-3-(4,4,4-trifluorobutoxy)azetidin-1-yl]ethyl}propionamide • Compound 4: N-[(R)-2-(3-but-2-ynyloxy-3-o-tolylazetidin-1-yl)-1-(4-methoxybenzyl)-2-oxoethyl]-3-(5-methyl-1H-imidazol-4-yl)propionamide • Compound 5: N-[(R)-2-(3-cyclobutylmethoxy-3-o-tolylazetidin-1-yl)-1-(4-methoxybenzyl)-2-oxoethyl]-3-(5-methyl-1H-imidazol-4-yl)propionamide • Compound 6: N-[(R)-2-(3-cyclopropylmethoxy-3-o-tolylazetidin-1-yl)-1-(4-methoxybenzyl)-2-oxoethyl]-3-(5-methyl-1H-imidazol-4-yl)propionamide • Compound 7: N-[(R)-2-(3-butoxy-3-o-tolylazetidin-1-yl)-1-(4-methoxybenzyl)-2-oxoethyl]-3-guanidinopropionamide; bis(trifluoroacetic acid) salt
Chain of hERG potassium channel (Q12809 whole entry): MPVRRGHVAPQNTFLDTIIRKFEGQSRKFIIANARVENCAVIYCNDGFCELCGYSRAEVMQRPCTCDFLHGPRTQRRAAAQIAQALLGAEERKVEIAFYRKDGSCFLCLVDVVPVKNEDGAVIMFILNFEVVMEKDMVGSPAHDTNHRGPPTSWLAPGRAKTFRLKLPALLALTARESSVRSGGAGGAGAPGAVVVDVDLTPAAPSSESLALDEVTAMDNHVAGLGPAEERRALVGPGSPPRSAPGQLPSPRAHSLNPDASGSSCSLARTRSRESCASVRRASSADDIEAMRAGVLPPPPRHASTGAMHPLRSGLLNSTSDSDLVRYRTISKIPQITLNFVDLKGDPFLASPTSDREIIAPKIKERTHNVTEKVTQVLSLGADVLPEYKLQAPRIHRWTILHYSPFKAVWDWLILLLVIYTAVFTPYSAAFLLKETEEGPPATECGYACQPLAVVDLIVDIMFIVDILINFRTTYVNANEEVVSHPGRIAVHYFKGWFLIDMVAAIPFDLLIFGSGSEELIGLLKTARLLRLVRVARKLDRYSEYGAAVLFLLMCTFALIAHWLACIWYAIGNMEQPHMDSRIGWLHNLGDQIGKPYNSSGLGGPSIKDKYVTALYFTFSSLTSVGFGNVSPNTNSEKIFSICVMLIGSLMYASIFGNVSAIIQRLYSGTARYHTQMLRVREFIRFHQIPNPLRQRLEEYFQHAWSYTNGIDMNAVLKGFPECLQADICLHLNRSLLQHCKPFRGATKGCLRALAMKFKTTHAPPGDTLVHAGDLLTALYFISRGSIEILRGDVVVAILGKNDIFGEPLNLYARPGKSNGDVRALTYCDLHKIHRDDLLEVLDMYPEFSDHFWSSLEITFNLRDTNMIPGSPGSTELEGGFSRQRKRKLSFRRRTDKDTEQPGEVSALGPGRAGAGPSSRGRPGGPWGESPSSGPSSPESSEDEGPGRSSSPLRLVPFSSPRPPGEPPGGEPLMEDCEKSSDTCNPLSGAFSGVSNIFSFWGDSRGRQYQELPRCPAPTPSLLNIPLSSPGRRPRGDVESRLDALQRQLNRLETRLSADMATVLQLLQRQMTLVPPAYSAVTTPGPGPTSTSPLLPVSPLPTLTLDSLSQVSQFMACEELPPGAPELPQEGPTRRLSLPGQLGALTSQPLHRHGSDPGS
The effect on the amplitude of IKr encoded by hERG (as the changes in percentages relative to the control) are summarized per compound and per concentration in Table 1 below.

Series [2] deals with hMC1R (Homo sapiens (Human), UniProt Q01726). In words: Transactivation test melanocortin receptors (CRE-Luc, HEK293), hMC1R. Conditions: for EC50: HEK293, pCRE-Luc, agonist mode, read-out: EC50 hMC1-R. On the procedure:
(§1) The aim of this example is to show the Melanocortine receptor selectivity of compound 1 and compound 6 of the present invention: • Cells: The lines HEK293 are transfected with vectors pCRE-Luc and hMC1R or hMC4R. The cells are cultured at 37° C. and 5% CO2, in DMEM medium supplemented with 10% foetal calf serum. • Test principle: In the presence of an activator (agonist), the melanocortin receptor will activate the cAMP pathway, which, via the vector CRE-Luc, will lead to the synthesis of luciferase. After addition of a lysis buffer containing a luminescent luciferase substrate, the luminescence proportional to the degree of activation or inhibition of receptor may be measured. • Testing the products: The products are dissolved at 10 mM in DMSO. They are tested as a response dose at 0.1% of DMSO final. The range comprising 10 points and a zero starts at 10 μM with four-fold dilutions. To test agonists, the products are tested alone. To determine the antagonist behaviour, the products of interest are tested in the presence of 1 nM NDP-MSH (reference agonist). The cells are inoculated at a rate of 5000 cells per well (384-well plate) in serum-free DMEM medium and incubated overnight at 37° C. and 5% CO2. • The products and the reference ligand (NDP-MSH) are added the following day and the plates are reincubated for 6 hours at 37° C. and 5% CO2. After adding the lysis buffer containing luciferin, the plates are read in a Top-Count machine. The results are normalized as percentage of activity using the 100% (cells+NDP-MSH at 10 nM) and 0% (cells alone) controls. An EC50 is calculated for each product using the XLFit software.

Series [3] has as its target hMC4R (Homo sapiens (Human), UniProt P32245). As to the kind of experiment: Transactivation test melanocortin receptors (CRE-Luc, HEK293), hMC4R. Conditions: HEK293, pCRE-Luc, agonist mode; read-out: EC50 hMC4-R. On the procedure:
as §1, with “The cells are inoculated at a rate of 5000 cells per well (384-well plate) in serum-free DMEM medium and incubated overnight at 37° C. and 5% CO2. • The products and the reference ligand (NDP-MSH) are added the following day and the plates are reincubated for 6 hours at 37° C. and 5% CO2.” left out, “The results are normalized as percentage of activity using the 100% (cells+NDP-MSH at 10 nM) and 0% (cells alone) controls.” left out

Chain of hMC1R (Q01726 whole entry): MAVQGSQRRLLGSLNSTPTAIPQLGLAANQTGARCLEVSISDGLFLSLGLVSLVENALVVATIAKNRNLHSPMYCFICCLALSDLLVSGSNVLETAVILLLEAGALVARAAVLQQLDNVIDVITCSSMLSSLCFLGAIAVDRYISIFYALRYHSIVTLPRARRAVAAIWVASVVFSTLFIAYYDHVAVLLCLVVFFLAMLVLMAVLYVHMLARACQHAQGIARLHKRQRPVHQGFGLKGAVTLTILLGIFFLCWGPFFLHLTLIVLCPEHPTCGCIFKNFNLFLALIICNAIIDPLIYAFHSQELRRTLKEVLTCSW
Chain of hMC4R (P32245 whole entry): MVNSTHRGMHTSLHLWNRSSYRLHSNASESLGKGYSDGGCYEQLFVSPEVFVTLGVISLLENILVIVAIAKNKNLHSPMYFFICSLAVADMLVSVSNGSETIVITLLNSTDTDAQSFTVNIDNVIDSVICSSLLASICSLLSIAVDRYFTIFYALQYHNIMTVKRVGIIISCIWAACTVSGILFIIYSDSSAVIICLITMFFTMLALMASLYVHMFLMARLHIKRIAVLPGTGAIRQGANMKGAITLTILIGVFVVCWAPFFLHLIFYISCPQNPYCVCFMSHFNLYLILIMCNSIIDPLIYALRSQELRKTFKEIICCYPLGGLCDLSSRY

In the case of `COc1ccc(C[C@@H](NC(=O)CCc2c[nH]cn2)C(=O)N2CC(OCCCCO)(c3ccccc3C)C2)cc1` [Compound 1, N-[(R)-2-[3-(4-hydroxybutoxy)-3-o-tolylazetidin-1-yl]-1-(4-methoxybenzyl)-2-oxoethyl]-3-(1H-imidazol-4-yl)propionamide], in series [1], the “cardiotoxic alert on the hERG channel test” value is “do not present any cardiotoxic alert”, the “effect observed on the amplitude of IKr (in words)” value (shortened to “effect observed on the amplitude”) was “no effect observed” and the “lengthening the QT time (conclusion from hERG test)” value (from here on “lengthening the QT time”) was “did not exhibit this characteristic”. The “effect on the amplitude of IKr encoded by hERG (change in percentage relative to the control)” value in series [1] (1 μM) is given as −1.5 ± 2.5%. The “effect on the amplitude of IKr encoded by hERG (change in percentage relative to the control)” value in series [1] (3 μM) was −3.0 ± 1.0%. In series [1] (10 μM), the “effect on the amplitude of IKr encoded by hERG (change in percentage relative to the control)” value is recorded as −7.5 ± 3.5%. In addition, in series [2], the “melanocortin receptor selectivity (hMC1R versus hMC4R)” value is listed as “hMC1R highly selective” and the EC50 (commonly the concentration at which the effect is half-maximal) was 0.25 µM. Moreover, in series [3], the 50% effective concentration (EC50) is 8 µM.

With `CCCCOC1(c2ccccc2C)CN(C(=O)[C@@H](Cc2ccc(OC)cc2)NC(=O)[C@@H](O)Cc2c[nH]cn2)C1` [Compound 2, (S)-N-[(R)-2-(3-butoxy-3-o-tolylazetidin-1-yl)-1-(4-methoxybenzyl)-2-oxoethyl]-2-hydroxy-3-(1H-imidazol-4-yl)propionamide], the “effect on the amplitude of IKr encoded by hERG (change in percentage relative to the control)” value in series [1] (1 μM) is given as “+1.0 ± 1.0%”; in series [1] (3 μM), −5.0 ± 5.0%; in series [1] (10 μM), −51.5 ± 6.5%. In series [1], the “effect observed on the amplitude” value is given as “modified but only at the highest concentration”. Besides, the IC50 (commonly the concentration that inhibits the measured activity by half) in series [1] is 10 µM. In series [1], the “lengthening the QT time” value is listed as “more substantially”.

`COc1ccc(C[C@@H](NC(=O)CCc2c[nH]cn2)C(=O)N2CC(OCCCC(F)(F)F)(c3ccccc3C)C2)cc1` [Compound 3, 3-(1H-imidazol-4-yl)-N-{(R)-1-(4-methoxybenzyl)-2-oxo-2-[3-o-tolyl-3-(4,4,4-trifluorobutoxy)azetidin-1-yl]ethyl}propionamide]: in series [1] (1 μM), the “effect on the amplitude of IKr encoded by hERG (change in percentage relative to the control)” value is on record as −16.0 ± 3.0%. The “effect on the amplitude of IKr encoded by hERG (change in percentage relative to the control)” value in series [1] (3 μM) is given as −42.5 ± 5.5%. Moreover, the “effect on the amplitude of IKr encoded by hERG (change in percentage relative to the control)” value in series [1] (10 μM) is −86.5 ± 3.5%. Further, in series [1], the “effect observed on the amplitude” value is recorded as “dose effect observed”, the half-inhibitory concentration (IC50) was more than 3 µM, the “concentration from which the decrease of the amplitude of IKr starts” value (“concentration from which the decrease” below) worked out at 1000 nM and the “lengthening the QT time” value is “more substantially”. For the same compound, in series [1], the “decrease of the amplitude of IKr” value amounted to 86.5%.

As for `CC#CCOC1(c2ccccc2C)CN(C(=O)[C@@H](Cc2ccc(OC)cc2)NC(=O)CCc2nc[nH]c2C)C1` [Compound 4, N-[(R)-2-(3-but-2-ynyloxy-3-o-tolylazetidin-1-yl)-1-(4-methoxybenzyl)-2-oxoethyl]-3-(5-methyl-1H-imidazol-4-yl)propionamide], in series [1] (1 μM), the “effect on the amplitude of IKr encoded by hERG (change in percentage relative to the control)” value is reported as −20.5 ± 9.5%. For the same compound, in series [1] (3 μM), the “effect on the amplitude of IKr encoded by hERG (change in percentage relative to the control)” value is reported as −22.0 ± 10.0%. For the same compound, the “effect on the amplitude of IKr encoded by hERG (change in percentage relative to the control)” value in series [1] (10 μM) is −42.5 ± 2.5%. In addition, in series [1], the “effect observed on the amplitude” value is “dose effect observed”, the 50% inhibitory concentration (IC50) is more than 10 µM, the “concentration from which the decrease” value is 3000 nM and the “lengthening the QT time” value is “more substantially”. In addition, the “decrease of the amplitude of IKr” value in series [1] is listed as 42.5%.

As to `COc1ccc(C[C@@H](NC(=O)CCc2nc[nH]c2C)C(=O)N2CC(OCC3CCC3)(c3ccccc3C)C2)cc1` [Compound 5, N-[(R)-2-(3-cyclobutylmethoxy-3-o-tolylazetidin-1-yl)-1-(4-methoxybenzyl)-2-oxoethyl]-3-(5-methyl-1H-imidazol-4-yl)propionamide], the “effect on the amplitude of IKr encoded by hERG (change in percentage relative to the control)” value in series [1] (1 μM) is listed as −17.0 ± 4.0%. Also, the “effect on the amplitude of IKr encoded by hERG (change in percentage relative to the control)” value in series [1] (3 μM) was −49.5 ± 16.5%. In addition, in series [1] (10 μM), the “effect on the amplitude of IKr encoded by hERG (change in percentage relative to the control)” value is −76.5 ± 17.5%. In addition, in series [1], the “effect observed on the amplitude” value was “dose effect observed”, the IC50 was 3 µM, the “concentration from which the decrease” value is 1000 nM and the “lengthening the QT time” value is reported as “more substantially”. Besides, the “decrease of the amplitude of IKr” value in series [1] came out at 76.5%.

Consider `COc1ccc(C[C@@H](NC(=O)CCc2nc[nH]c2C)C(=O)N2CC(OCC3CC3)(c3ccccc3C)C2)cc1` [Compound 6, N-[(R)-2-(3-cyclopropylmethoxy-3-o-tolylazetidin-1-yl)-1-(4-methoxybenzyl)-2-oxoethyl]-3-(5-methyl-1H-imidazol-4-yl)propionamide], for which, in series [1], the “cardiotoxic alert on the hERG channel test” value was “do not present any cardiotoxic alert”, the “effect observed on the amplitude” value is “no effect observed” and the “lengthening the QT time” value is recorded as “did not exhibit this characteristic”. Besides, the “effect on the amplitude of IKr encoded by hERG (change in percentage relative to the control)” value in series [1] (1 μM) was −5.0 ± 3.0%. For the same compound, the “effect on the amplitude of IKr encoded by hERG (change in percentage relative to the control)” value in series [1] (3 μM) is −9.5 ± 3.5%. For the same compound, in series [1] (10 μM), the “effect on the amplitude of IKr encoded by hERG (change in percentage relative to the control)” value was −16.0 ± 7.0%. For the same compound, in series [2], the “melanocortin receptor selectivity (hMC1R versus hMC4R)” value is “hMC1R highly selective” and the EC50 was 0.07 µM. Also, in series [3], the EC50 was found to be 4.5 µM.

`CCCCOC1(c2ccccc2C)CN(C(=O)[C@@H](Cc2ccc(OC)cc2)NC(=O)CCNC(=N)N)C1` [Compound 7, N-[(R)-2-(3-butoxy-3-o-tolylazetidin-1-yl)-1-(4-methoxybenzyl)-2-oxoethyl]-3-guanidinopropionamide]: in series [1] (1 μM), the “effect on the amplitude of IKr encoded by hERG (change in percentage relative to the control)” value is listed as −19.5 ± 4.5%. For the same compound, the “effect on the amplitude of IKr encoded by hERG (change in percentage relative to the control)” value in series [1] (3 μM) was −29.5 ± 9.5%. The “effect on the amplitude of IKr encoded by hERG (change in percentage relative to the control)” value in series [1] (10 μM) was −33.0 ± 12.0%. Moreover, in series [1], the “effect observed on the amplitude” value was “slight dose effect observed”, the IC50 was more than 10 µM, the “concentration from which the decrease” value amounted to 1000 nM and the “lengthening the QT time” value is reported as “slightly”. In addition, the “decrease of the amplitude of IKr” value in series [1] came to 33%.
